The source of these data is the supplement of paper PMC11208160.
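Also: IS621 bridge recombinase in Escherichia coli cells against a fixed T5 target plasmid.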

A short description of this data set: recombinant UMI read abundance after kanamycin selection (control-corrected) (log10(CPM+1)); higher = more efficient recombination; extreme values may be limits of the assay; sequences stand for … in AGTGCAGAGAAAATCGGCCAGTTTTCTCTGCCTGCAGTCCGCATGCCGTGGGACCCCTTGGGTTCTAACCTGTTGCCTAGATTTATGCAGCGGACTGCCTTTCTCCCAAAGTGATAAACCGG…AGGTTGGTTTCACT; site = the 11-nt donor. An outline of the steps:
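Counts of recombinant UMIs were reported as log10(CPM+1). Before that, they were converted to CPM, averaged over replicates and scaled using control-derived factors. They came from PCR across the donor–target junction after Escherichia coli carrying the pair library and target plasmid was plated on IPTG (0.07 mM) plus kanamycin, or unselected, in two replicates each.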
Regarding “CACTTGTCATGGACCGGTTTTCCCGGTAATCCGTATTTGGA (site CACTTGCCTTC)”, the “recombinant UMI read abundance (log10)” value was 0.0181.

As for “CACTTGTCATGGACCGGTTTTCCCGGTAATCCGTATTTGGA (site CACTTGGCTTC)”, the “recombinant UMI read abundance (log10)” value is 0.00318.

Take “CACTTGTCATGGACCGGTTTTCCCGGTAATCCGTATTTGGA (site CACTTGTCTTC)”: the “recombinant UMI read abundance (log10)” value amounted to 1.84.

“CAGAAGTCATGGACCGGTTTTCCCGGTAATCCGTATTTGAC (site CAGAAGTCTGT)”: the “recombinant UMI read abundance (log10)” value was determined as 1.46.

Turning to “CAGAATACATGGACCGGTTTTCCCGGTAATCCGTATTTGCA (site AAGAATACTTG)”, the “recombinant UMI read abundance (log10)” value is 0.616.

Consider “CAGAATACATGGACCGGTTTTCCCGGTAATCCGTATTTGCA (site CAGAATACTTG)”, for which the “recombinant UMI read abundance (log10)” value amounted to 2.15.

For “CAGAATACATGGACCGGTTTTCCCGGTAATCCGTATTTGCA (site GAGAATACTTG)”, the “recombinant UMI read abundance (log10)” value stood at 0.

On to “CAGAATACATGGACCGGTTTTCCCGGTAATCCGTATTTGCA (site TAGAATACTTG)”, for which the “recombinant UMI read abundance (log10)” value was found to be 0.38.

As to “CAGAATCCATGGACCGGTTTTCCCGGTAATCCGTATTTGTC (site CAGAATCCTGA)”, the “recombinant UMI read abundance (log10)” value turned out to be 2.5.

As for “CAGAATCCATGGACCGGTTTTCCCGGTAATCCGTATTTGTC (site CGGAATCCTAA)”, the “recombinant UMI read abundance (log10)” value was 0.

On to “CAGACATCATGGACCGGTTTTCCCGGTAATCCGTATTTGAG (site CAGACATCTCT)”, for which the “recombinant UMI read abundance (log10)” value amounted to 3.06.

With “CAGACCGCATGGACCGGTTTTCCCGGTAATCCGTATTTGTC (site CAGACCGCTGA)”, the “recombinant UMI read abundance (log10)” value amounted to 3.23.

Consider “CAGATGGCATGGACCGGTTTTCCCGGTAATCCGTATTTGTA (site CAGATGGCTTA)”, for which the “recombinant UMI read abundance (log10)” value was found to be 2.68.

“CAGCACGCATGGACCGGTTTTCCCGGTAATCCGTATTTGGG (site AAGCACGCTCC)”: the “recombinant UMI read abundance (log10)” value came to 0.012.

For the sequence “CAGCACGCATGGACCGGTTTTCCCGGTAATCCGTATTTGGG (site CAGCACGCTCC)”, the “recombinant UMI read abundance (log10)” value turned out to be 0.512.

Regarding “CAGCACGCATGGACCGGTTTTCCCGGTAATCCGTATTTGGG (site GAGCACGCTCC)”, the “recombinant UMI read abundance (log10)” value stood at 0.0111.

Take “CAGCACGCATGGACCGGTTTTCCCGGTAATCCGTATTTGGG (site TAGCACGCTCC)”: the “recombinant UMI read abundance (log10)” value was determined as 0.0838.

Consider “CAGCAGCCATGGACCGGTTTTCCCGGTAATCCGTATTTGGT (site CAGCAGCCTAC)”, for which the “recombinant UMI read abundance (log10)” value was 0.642.

For “CAGCATGCATGGACCGGTTTTCCCGGTAATCCGTATTTGAA (site CAGCATGCTTT)”, the “recombinant UMI read abundance (log10)” value amounted to 2.7.

Regarding “CAGCCAACATGGACCGGTTTTCCCGGTAATCCGTATTTGCA (site CAGCCAACTTG)”, the “recombinant UMI read abundance (log10)” value was 2.34.

“CAGCGGTCATGGACCGGTTTTCCCGGTAATCCGTATTTGCC (site CAGCGGTCTGG)”: the “recombinant UMI read abundance (log10)” value worked out at 2.76.

For the sequence “CAGCTCGCATGGACCGGTTTTCCCGGTAATCCGTATTTGTG (site CAGCTCGCTCA)”, the “recombinant UMI read abundance (log10)” value stood at 0.0273.

With “CAGCTGGCATGGACCGGTTTTCCCGGTAATCCGTATTTGAT (site CAGCTGGCTAT)”, the “recombinant UMI read abundance (log10)” value was 1.63.

With “CAGGCATCATGGACCGGTTTTCCCGGTAATCCGTATTTGCA (site CAGGCATCTTG)”, the “recombinant UMI read abundance (log10)” value came out at 2.53.

Take “CAGGCCGCATGGACCGGTTTTCCCGGTAATCCGTATTTGAG (site CAGGCCGCTCT)”: the “recombinant UMI read abundance (log10)” value worked out at 0.33.

For the sequence “CAGGGGTCATGGACCGGTTTTCCCGGTAATCCGTATTTGAA (site CAGGGGTCTTT)”, the “recombinant UMI read abundance (log10)” value came to 3.02.

Regarding “CAGGGTCCATGGACCGGTTTTCCCGGTAATCCGTATTTGGA (site CAGGGTCCTTC)”, the “recombinant UMI read abundance (log10)” value was determined as 0.288.

Turning to “CAGGTCACATGGACCGGTTTTCCCGGTAATCCGTATTTGGG (site CAAGTCACTCC)”, the “recombinant UMI read abundance (log10)” value was found to be 0.0193.

Consider “CAGGTCACATGGACCGGTTTTCCCGGTAATCCGTATTTGGG (site CACGTCACTCC)”, for which the “recombinant UMI read abundance (log10)” value stood at 0.00865.

In the case of “CAGGTCACATGGACCGGTTTTCCCGGTAATCCGTATTTGGG (site CAGGTCACTCC)”, the “recombinant UMI read abundance (log10)” value worked out at 0.0396.

Turning to “CAGGTCACATGGACCGGTTTTCCCGGTAATCCGTATTTGGG (site CATGTCACTCC)”, the “recombinant UMI read abundance (log10)” value amounted to 0.0163.

“CAGGTCACATGGACCGGTTTTCCCGGTAATCCGTATTTGTC (site CAGGTCACTGA)”: the “recombinant UMI read abundance (log10)” value was 2.7.

With “CAGGTGACATGGACCGGTTTTCCCGGTAATCCGTATTTGTA (site CAGGTGACTTA)”, the “recombinant UMI read abundance (log10)” value turned out to be 1.83.

Turning to “CAGGTGGCATGGACCGGTTTTCCCGGTAATCCGTATTTGCG (site CAGGTGGCTCG)”, the “recombinant UMI read abundance (log10)” value stood at 1.88.

“CAGTAGACATGGACCGGTTTTCCCGGTAATCCGTATTTGGG (site CAGTAGACTCC)”: the “recombinant UMI read abundance (log10)” value was determined as 0.653.

For “CAGTAGACATGGACCGGTTTTCCCGGTAATCCGTATTTGGG (site CAGTCGACTCC)”, the “recombinant UMI read abundance (log10)” value worked out at 0.00641.

Take “CAGTAGACATGGACCGGTTTTCCCGGTAATCCGTATTTGGG (site CAGTGGACTCC)”: the “recombinant UMI read abundance (log10)” value came out at 0.00992.

In the case of “CAGTAGACATGGACCGGTTTTCCCGGTAATCCGTATTTGGG (site CAGTTGACTCC)”, the “recombinant UMI read abundance (log10)” value was determined as 0.033.

Consider “CAGTATCCATGGACCGGTTTTCCCGGTAATCCGTATTTGTT (site CAGTATCCTAA)”, for which the “recombinant UMI read abundance (log10)” value was determined as 1.87.

As to “CAGTATCCATGGACCGGTTTTCCCGGTAATCCGTATTTGTT (site CGGAATCCTAA)”, the “recombinant UMI read abundance (log10)” value was 0.00316.

Turning to “CAGTCGACATGGACCGGTTTTCCCGGTAATCCGTATTTGGA (site CAGTCGACTAC)”, the “recombinant UMI read abundance (log10)” value came to 0.0073.

Regarding “CAGTCGACATGGACCGGTTTTCCCGGTAATCCGTATTTGGA (site CAGTCGACTCC)”, the “recombinant UMI read abundance (log10)” value came out at 0.0138.

Consider “CAGTCGACATGGACCGGTTTTCCCGGTAATCCGTATTTGGA (site CAGTCGACTGC)”, for which the “recombinant UMI read abundance (log10)” value worked out at 0.00544.

As to “CAGTCGACATGGACCGGTTTTCCCGGTAATCCGTATTTGGA (site CAGTCGACTTC)”, the “recombinant UMI read abundance (log10)” value is 0.0121.

Turning to “CAGTCGACATGGACCGGTTTTCCCGGTAATCCGTATTTGGG (site AAGTCGACTCC)”, the “recombinant UMI read abundance (log10)” value was determined as 0.0145.

In the case of “CAGTCGACATGGACCGGTTTTCCCGGTAATCCGTATTTGGG (site CAATCGACTCC)”, the “recombinant UMI read abundance (log10)” value was 0.0099.

For the sequence “CAGTCGACATGGACCGGTTTTCCCGGTAATCCGTATTTGGG (site CACTCGACTCC)”, the “recombinant UMI read abundance (log10)” value amounted to 0.0212.

As for “CAGTCGACATGGACCGGTTTTCCCGGTAATCCGTATTTGGG (site CAGACGACTCC)”, the “recombinant UMI read abundance (log10)” value was determined as 0.083.

Consider “CAGTCGACATGGACCGGTTTTCCCGGTAATCCGTATTTGGG (site CAGCCGACTCC)”, for which the “recombinant UMI read abundance (log10)” value amounted to 0.00881.

As to “CAGTCGACATGGACCGGTTTTCCCGGTAATCCGTATTTGGG (site CAGGCGACTCC)”, the “recombinant UMI read abundance (log10)” value was found to be 0.

With “CAGTCGACATGGACCGGTTTTCCCGGTAATCCGTATTTGGG (site CAGTAGACTCC)”, the “recombinant UMI read abundance (log10)” value was 0.34.

Regarding “CAGTCGACATGGACCGGTTTTCCCGGTAATCCGTATTTGGG (site CAGTCAACTCC)”, the “recombinant UMI read abundance (log10)” value came to 0.0265.

“CAGTCGACATGGACCGGTTTTCCCGGTAATCCGTATTTGGG (site CAGTCCACTCC)”: the “recombinant UMI read abundance (log10)” value was 0.0168.

Turning to “CAGTCGACATGGACCGGTTTTCCCGGTAATCCGTATTTGGG (site CAGTCGACTAC)”, the “recombinant UMI read abundance (log10)” value turned out to be 0.0109.

Take “CAGTCGACATGGACCGGTTTTCCCGGTAATCCGTATTTGGG (site CAGTCGACTCA)”: the “recombinant UMI read abundance (log10)” value stood at 0.00973.

As for “CAGTCGACATGGACCGGTTTTCCCGGTAATCCGTATTTGGG (site CAGTCGACTCC)”, the “recombinant UMI read abundance (log10)” value amounted to 0.297.

Regarding “CAGTCGACATGGACCGGTTTTCCCGGTAATCCGTATTTGGG (site CAGTCGACTCG)”, the “recombinant UMI read abundance (log10)” value is 0.

On to “CAGTCGACATGGACCGGTTTTCCCGGTAATCCGTATTTGGG (site CAGTCGACTCT)”, for which the “recombinant UMI read abundance (log10)” value was determined as 0.314.

Turning to “CAGTCGACATGGACCGGTTTTCCCGGTAATCCGTATTTGGG (site CAGTCGACTGC)”, the “recombinant UMI read abundance (log10)” value turned out to be 0.

“CAGTCGACATGGACCGGTTTTCCCGGTAATCCGTATTTGGG (site CAGTCGACTTC)”: the “recombinant UMI read abundance (log10)” value was determined as 0.00419.

Take “CAGTCGACATGGACCGGTTTTCCCGGTAATCCGTATTTGGG (site CAGTCGCCTCC)”: the “recombinant UMI read abundance (log10)” value came out at 0.0239.

Take “CAGTCGACATGGACCGGTTTTCCCGGTAATCCGTATTTGGG (site CAGTCGGCTCC)”: the “recombinant UMI read abundance (log10)” value amounted to 0.0315.

For “CAGTCGACATGGACCGGTTTTCCCGGTAATCCGTATTTGGG (site CAGTCGTCTCC)”, the “recombinant UMI read abundance (log10)” value came out at 0.151.

Take “CAGTCGACATGGACCGGTTTTCCCGGTAATCCGTATTTGGG (site CAGTCTACTCC)”: the “recombinant UMI read abundance (log10)” value turned out to be 0.0277.

As to “CAGTCGACATGGACCGGTTTTCCCGGTAATCCGTATTTGGG (site CAGTGGACTCC)”, the “recombinant UMI read abundance (log10)” value turned out to be 0.0181.

Consider “CAGTCGACATGGACCGGTTTTCCCGGTAATCCGTATTTGGG (site CAGTTGACTCC)”, for which the “recombinant UMI read abundance (log10)” value was found to be 0.0173.

Regarding “CAGTCGACATGGACCGGTTTTCCCGGTAATCCGTATTTGGG (site CATTCGACTCC)”, the “recombinant UMI read abundance (log10)” value amounted to 0.0119.

As for “CAGTCGACATGGACCGGTTTTCCCGGTAATCCGTATTTGGG (site CCGTCGACTCC)”, the “recombinant UMI read abundance (log10)” value came out at 0.00307.
